# Activity calls are given as the source filed them. No cut-off for these calls is given here.
# Key:
# A549 [1] = test: Cytotoxicity against human A549 cells assessed as reduction in cell viability at 0.1 to 10 uM incubated for 48 hrs by MTT assay; assay type: functional, cell-based; conditions: dose 0.1-10 µM
# SK-OV-3 [2] = test: Cytotoxicity against human BRCA-1 deficient SK-OV-3 cells assessed as reduction in cell viability at 0.1 to 10 uM incubated for 48 hrs by MTT assay; assay type: functional, cell-based; conditions: dose 0.1-10 µM
# [3] = biological target: T1, Poly [ADP-ribose] polymerase 2 (Homo sapiens, UniProt Q9UGN5); test: Inhibition of recombinant human full-length PARP-2 using biotinylated substrate
# T1 sequence (Q9UGN5 whole entry): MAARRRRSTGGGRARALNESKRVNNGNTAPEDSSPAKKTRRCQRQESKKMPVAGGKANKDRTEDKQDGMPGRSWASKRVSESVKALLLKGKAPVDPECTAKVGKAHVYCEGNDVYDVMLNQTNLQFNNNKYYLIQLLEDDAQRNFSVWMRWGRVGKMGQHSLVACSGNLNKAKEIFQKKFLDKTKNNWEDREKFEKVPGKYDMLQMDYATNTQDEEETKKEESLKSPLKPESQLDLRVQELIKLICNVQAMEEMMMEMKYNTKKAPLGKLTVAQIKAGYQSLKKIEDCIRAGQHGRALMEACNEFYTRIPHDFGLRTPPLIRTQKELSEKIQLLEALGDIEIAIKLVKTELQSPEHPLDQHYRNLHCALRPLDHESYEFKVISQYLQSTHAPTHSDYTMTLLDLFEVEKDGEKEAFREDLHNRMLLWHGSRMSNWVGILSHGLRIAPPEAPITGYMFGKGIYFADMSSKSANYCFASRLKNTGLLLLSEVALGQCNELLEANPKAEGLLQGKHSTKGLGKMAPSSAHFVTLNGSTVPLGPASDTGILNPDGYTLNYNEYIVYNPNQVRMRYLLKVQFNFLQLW
# [4] = Acute toxicity in ICR mouse assessed as death at 1000 mg/kg, po administered only once at day 1 and measured after 5 to 8 days; assay type: organism-based; conditions: in vivo, time 5-8 day
# A549 [5] = test: Cytotoxicity against human A549 cells assessed as induction of CBP cytotoxicity incubated for 48 hrs in presence of CBP by MTT assay; assay type: functional, cell-based; conditions: dose 0.1-10 µM
# [6] = biological target: T2, Poly [ADP-ribose] polymerase 1 (Homo sapiens, UniProt P09874); test: Inhibition of recombinant human full-length PARP-1 using biotinylated substrate
# T2 sequence (P09874 whole entry): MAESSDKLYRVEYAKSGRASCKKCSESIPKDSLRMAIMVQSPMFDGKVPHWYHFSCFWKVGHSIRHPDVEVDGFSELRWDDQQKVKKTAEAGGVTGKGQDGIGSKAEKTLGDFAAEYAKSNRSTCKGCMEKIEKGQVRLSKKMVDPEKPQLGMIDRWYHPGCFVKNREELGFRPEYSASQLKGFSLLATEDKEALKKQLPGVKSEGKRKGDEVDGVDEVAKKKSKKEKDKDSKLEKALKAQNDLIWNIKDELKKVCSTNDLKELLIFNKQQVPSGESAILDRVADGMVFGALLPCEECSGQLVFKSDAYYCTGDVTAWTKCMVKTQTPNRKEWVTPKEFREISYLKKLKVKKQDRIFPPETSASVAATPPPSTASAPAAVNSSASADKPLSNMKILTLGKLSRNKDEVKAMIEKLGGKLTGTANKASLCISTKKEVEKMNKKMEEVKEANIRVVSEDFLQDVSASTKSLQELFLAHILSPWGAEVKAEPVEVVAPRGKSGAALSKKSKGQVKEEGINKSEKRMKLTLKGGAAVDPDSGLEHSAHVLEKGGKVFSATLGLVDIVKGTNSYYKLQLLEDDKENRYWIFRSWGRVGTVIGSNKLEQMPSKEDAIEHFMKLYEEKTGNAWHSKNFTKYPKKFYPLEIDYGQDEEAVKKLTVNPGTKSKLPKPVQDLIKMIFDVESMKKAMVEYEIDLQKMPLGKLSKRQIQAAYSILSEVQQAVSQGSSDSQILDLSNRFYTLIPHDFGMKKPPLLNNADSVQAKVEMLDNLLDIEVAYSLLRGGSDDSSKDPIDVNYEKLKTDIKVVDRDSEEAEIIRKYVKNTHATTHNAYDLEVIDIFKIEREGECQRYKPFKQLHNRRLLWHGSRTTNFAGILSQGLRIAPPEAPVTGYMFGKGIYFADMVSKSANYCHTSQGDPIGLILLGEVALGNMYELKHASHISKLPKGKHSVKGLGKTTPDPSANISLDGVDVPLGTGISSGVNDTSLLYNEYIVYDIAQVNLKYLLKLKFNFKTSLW
# Homo sapiens = species on record: Homo sapiens; test: Selectivity index, ratio of IC50 for inhibition of recombinant human full-length PARP-2 to IC50 for inhibition of recombinant human full-length PARP-1
# [7] = biological target: T2, Poly [ADP-ribose] polymerase 1; test: Binding affinity to recombinant human PARP-1 by SPR analysis
# [8] = Acute toxicity in ICR mouse assessed as change in blood routine at 1000 mg/kg, po administered only once at day 1 and measured every two days for 14 days; assay type: organism-based; conditions: in vivo, 336 h, time 14 day
# CYP1A2 = biological target: T3, CYP1A2 (Homo sapiens, UniProt P05177); test: Inhibition of CYP1A2 (unknown origin) at 10 uM incubated for 10 to 30 mins in presence of NADPH regeneration system by microplate analysis relative to control; assay type: ADME; conditions: time 10-30 min
# T3 sequence (P05177 whole entry): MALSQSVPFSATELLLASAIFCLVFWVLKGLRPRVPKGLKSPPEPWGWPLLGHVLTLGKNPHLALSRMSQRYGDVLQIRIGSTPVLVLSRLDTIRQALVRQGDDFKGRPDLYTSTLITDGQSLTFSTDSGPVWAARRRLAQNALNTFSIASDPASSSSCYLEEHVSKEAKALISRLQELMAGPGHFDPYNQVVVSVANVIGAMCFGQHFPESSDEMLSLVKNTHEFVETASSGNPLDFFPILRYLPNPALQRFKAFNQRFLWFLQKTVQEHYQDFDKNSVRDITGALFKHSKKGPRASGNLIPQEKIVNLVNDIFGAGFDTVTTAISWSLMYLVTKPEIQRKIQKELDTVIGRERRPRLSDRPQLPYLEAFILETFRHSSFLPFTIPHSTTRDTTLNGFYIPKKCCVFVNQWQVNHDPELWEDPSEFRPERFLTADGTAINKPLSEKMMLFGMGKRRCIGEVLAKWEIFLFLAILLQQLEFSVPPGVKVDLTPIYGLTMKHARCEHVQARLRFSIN
# CYP2C9 = CYP2C9 (Homo sapiens, UniProt P11712); test: Inhibition of CYP2C9 (unknown origin) at 10 uM incubated for 10 to 30 mins in presence of NADPH regeneration system by microplate analysis relative to control; assay type: ADME; conditions: time 10-30 min
# Sequence of CYP2C9 (P11712 whole entry): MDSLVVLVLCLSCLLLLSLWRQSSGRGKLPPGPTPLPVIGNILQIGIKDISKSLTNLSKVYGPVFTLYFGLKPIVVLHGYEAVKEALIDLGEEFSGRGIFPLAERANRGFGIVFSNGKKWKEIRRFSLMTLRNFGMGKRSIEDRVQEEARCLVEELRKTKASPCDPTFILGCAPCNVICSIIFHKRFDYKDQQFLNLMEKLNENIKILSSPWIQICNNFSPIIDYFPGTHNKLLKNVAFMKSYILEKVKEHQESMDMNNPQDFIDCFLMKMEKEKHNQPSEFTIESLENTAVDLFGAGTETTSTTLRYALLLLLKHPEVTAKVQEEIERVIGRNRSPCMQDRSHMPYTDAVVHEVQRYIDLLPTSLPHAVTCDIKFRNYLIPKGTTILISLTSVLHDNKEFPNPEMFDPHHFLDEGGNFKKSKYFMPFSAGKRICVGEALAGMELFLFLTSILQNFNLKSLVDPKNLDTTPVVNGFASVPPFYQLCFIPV
# [9] = Hepatotoxicity in ICR mouse assessed as effect on AST level at 1000 mg/kg, po administered only once at day 1 and measured every two days for 14 days (reference value: 61.5 +/- 3.7 U/L); assay type: toxicity, organism-based; conditions: in vivo, 336 h, time 14 day
# [10] = Hepatotoxicity in ICR mouse assessed as effect on ALT level at 1000 mg/kg, po administered only once at day 1 and measured every two days for 14 days (reference value: 28.6 +/- 6.9 U/L); assay type: toxicity, organism-based; conditions: in vivo, 336 h, time 14 day
# [11] = Stability in rat plasma assessed as compound remaining after 4 hrs; assay type: ADME, cell-free; conditions: read-out: Stabilty
# CYP3A4 = CYP3A4 (Homo sapiens, UniProt P08684); test: Inhibition of CYP3A4 (unknown origin) at 10 uM incubated for 10 to 30 mins in presence of NADPH regeneration system by microplate analysis relative to control; assay type: ADME; conditions: time 10-30 min
# Sequence of CYP3A4 (P08684 whole entry): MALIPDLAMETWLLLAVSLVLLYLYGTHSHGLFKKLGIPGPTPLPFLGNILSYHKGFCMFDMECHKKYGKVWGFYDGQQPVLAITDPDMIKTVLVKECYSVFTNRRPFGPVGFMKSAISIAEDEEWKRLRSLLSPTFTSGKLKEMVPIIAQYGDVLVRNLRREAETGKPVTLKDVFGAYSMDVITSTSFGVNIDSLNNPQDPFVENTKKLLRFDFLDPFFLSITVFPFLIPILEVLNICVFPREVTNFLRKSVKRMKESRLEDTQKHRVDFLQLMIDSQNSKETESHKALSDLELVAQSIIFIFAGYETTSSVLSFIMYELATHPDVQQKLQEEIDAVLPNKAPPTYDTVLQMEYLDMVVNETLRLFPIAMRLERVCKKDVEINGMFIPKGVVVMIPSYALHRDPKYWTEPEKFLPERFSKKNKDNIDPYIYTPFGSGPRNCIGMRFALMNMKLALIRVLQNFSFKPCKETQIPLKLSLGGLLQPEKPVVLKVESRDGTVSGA
# CYP2C19 = CYP2C19 (Homo sapiens, UniProt P33261); test: Inhibition of CYP2C19 (unknown origin) at 10 uM incubated for 10 to 30 mins in presence of NADPH regeneration system by microplate analysis relative to control; assay type: ADME; conditions: time 10-30 min
# Sequence of CYP2C19 (P33261 whole entry): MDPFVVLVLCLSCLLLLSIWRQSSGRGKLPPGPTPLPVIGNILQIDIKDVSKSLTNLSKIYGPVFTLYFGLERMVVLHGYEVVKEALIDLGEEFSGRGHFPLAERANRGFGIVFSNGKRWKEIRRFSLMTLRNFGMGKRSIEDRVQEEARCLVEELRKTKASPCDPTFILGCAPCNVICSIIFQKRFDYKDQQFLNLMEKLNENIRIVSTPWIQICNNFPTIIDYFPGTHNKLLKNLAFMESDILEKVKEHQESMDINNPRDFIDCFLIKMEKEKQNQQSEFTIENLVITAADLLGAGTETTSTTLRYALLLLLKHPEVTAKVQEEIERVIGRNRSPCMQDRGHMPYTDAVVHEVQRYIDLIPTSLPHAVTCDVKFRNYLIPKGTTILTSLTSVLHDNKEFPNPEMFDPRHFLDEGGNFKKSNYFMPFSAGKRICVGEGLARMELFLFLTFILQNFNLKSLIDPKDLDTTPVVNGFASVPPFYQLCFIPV
# [12] = Renal toxicity in ICR mouse assessed as effect on BUN level at 1000 mg/kg, po administered only once at day 1 and measured every two days for 14 days (reference value: 8.9 +/- 0.9 mmol/L); assay type: organism-based; conditions: in vivo, 336 h, time 14 day
# [13] = Acute toxicity in ICR mouse assessed as change in body weight at 1000 mg/kg, po administered only once at day 1 and measured every two days for 14 days; assay type: organism-based; conditions: in vivo, 336 h, time 14 day
# [14] = Stability in rat plasma assessed as compound remaining after 0.5 hrs; assay type: ADME, cell-free; conditions: read-out: Stabilty
# CYP2D6 = CYP2D6 (Homo sapiens, UniProt P10635); test: Inhibition of CYP2D6 (unknown origin) at 10 uM incubated for 10 to 30 mins in presence of NADPH regeneration system by microplate analysis relative to control; assay type: ADME; conditions: time 10-30 min
# Sequence of CYP2D6 (P10635 whole entry): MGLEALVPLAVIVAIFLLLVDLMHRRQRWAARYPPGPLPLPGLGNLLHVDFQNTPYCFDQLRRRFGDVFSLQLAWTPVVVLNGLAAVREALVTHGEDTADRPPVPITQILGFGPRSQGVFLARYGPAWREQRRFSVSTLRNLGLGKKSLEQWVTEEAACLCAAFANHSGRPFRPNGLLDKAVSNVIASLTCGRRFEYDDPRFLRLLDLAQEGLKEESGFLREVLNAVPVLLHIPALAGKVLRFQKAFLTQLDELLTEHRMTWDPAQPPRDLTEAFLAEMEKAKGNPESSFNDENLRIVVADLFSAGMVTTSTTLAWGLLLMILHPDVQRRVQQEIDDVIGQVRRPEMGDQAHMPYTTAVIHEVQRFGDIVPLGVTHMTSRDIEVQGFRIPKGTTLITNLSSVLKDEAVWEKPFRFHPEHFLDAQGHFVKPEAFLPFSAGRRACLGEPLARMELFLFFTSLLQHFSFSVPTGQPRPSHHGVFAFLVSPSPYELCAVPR
# [15] = biological target: T1, Poly [ADP-ribose] polymerase 2; test: Binding affinity to recombinant human PARP-2 by SPR analysis
# [16] = biological target: T2, Poly [ADP-ribose] polymerase 1; test: Inhibition of PARP-1 in human SK-OV-3 cells assessed as decrease in MCM6 protein expression level at 0.1 to 10 uM by Western blot analysis; assay type: cell-based; conditions: dose 0.1-10 µM
# SK-OV-3 [17] = test: Antitumor activity against human SK-OV-3 cells xenografted in BALB/c nude mouse assessed as increase in gamma-H2AX expression in tumor at 25 to 50 mg/kg, po measured after 28 days by Western blot analysis; assay type: functional, organism-based; conditions: dose 25-50 mg/kg, time 28.0 day
# [18] = biological target: T2, Poly [ADP-ribose] polymerase 1; test: Binding affinity to PARP-1 in human SK-OV-3 cells assessed as thermal stabilization after 3 hrs by ITDRF-CETSA; assay type: cell-based; conditions: dose 0.1-10 µM
# [19] = biological target: T1, Poly [ADP-ribose] polymerase 2; test: Binding affinity to PARP-2 in human SK-OV-3 cells assessed as increase in thermal stabilization of PARP-2 at 1 uM after 3 hrs by CETSA; assay type: cell-based
# [20] = biological target: T2, Poly [ADP-ribose] polymerase 1; test: Inhibition of PARP-1 in human SK-OV-3 cells assessed as induction of DNA damage by measuring increase in gamma H2AX expression at 0.1 to 10 uM by Western blot analysis; assay type: cell-based; conditions: dose 0.1-10 µM
# [21] = biological target: T2, Poly [ADP-ribose] polymerase 1; test: Inhibition of PARP-1 in human SK-OV-3 cells assessed as decrease in MCM2 protein expression level at 0.1 to 10 uM by Western blot analysis; assay type: cell-based; conditions: dose 0.1-10 µM
# [22] = biological target: T2, Poly [ADP-ribose] polymerase 1; test: Inhibition of PARP-1 in human SK-OV-3 cells assessed as decrease in MCM7 protein expression level at 0.1 to 10 uM by Western blot analysis; assay type: cell-based; conditions: dose 0.1-10 µM
# SK-OV-3 [23] = test: Cytotoxicity against human SK-OV-3 cells transfected with PARP-1 siRNA assessed as reduction in cell viability at 0.1 to 10 uM after 48 hrs by MTT assay; assay type: functional, cell-based; conditions: dose 0.1-10 µM
# A549 [24] = test: Cytotoxicity against human A549 cells transfected with PARP-1 siRNA assessed as sensitization of CBP at 0.1 to 10 uM incubated for 48 hrs in presence of CBP by MTT assay; assay type: functional, cell-based; conditions: dose 0.1-10 µM
# SK-OV-3 [25] = test: Antitumor activity against human SK-OV-3 cells xenografted in BALB/c nude mouse assessed as decrease in PAR level at 25 to 50 mg/kg, po measured after 28 days by immunohistochemistry analysis; assay type: functional, organism-based; conditions: dose 25-50 mg/kg, time 28.0 day
# [26] = biological target: T2, Poly [ADP-ribose] polymerase 1; test: Inhibition of PARP-1 in human SK-OV-3 cells assessed as decrease in MCM4 protein expression level at 0.1 to 10 uM by Western blot analysis; assay type: cell-based; conditions: dose 0.1-10 µM
# [27] = biological target: T2, Poly [ADP-ribose] polymerase 1; test: Binding affinity to PARP-1 in human SK-OV-3 cells assessed as increase in thermal stabilization of PARP-1 at 1 uM after 3 hrs by CETSA; assay type: cell-based
# [28] = biological target: T1, Poly [ADP-ribose] polymerase 2; test: Binding affinity to PARP-2 in human SK-OV-3 cells assessed as thermal stabilization after 3 hrs by ITDRF-CETSA; assay type: cell-based; conditions: dose 0.1-10 µM
# [29] = biological target: T2, Poly [ADP-ribose] polymerase 1; test: Inhibition of PARP-1 in human SK-OV-3 cells assessed as decrease in H2O2-induced PAR level preincubated for 4 hrs followed by H2O2 addition by DAPI staining based inverted fluorescence microscopic analysis; assay type: cell-based
# SK-OV-3 [30] = test: Antitumor activity against human SK-OV-3 cells xenografted in BALB/c nude mouse assessed as decrease in tumor volume at 50 mg/kg, po administered once daily measured for 28 days; assay type: functional, organism-based; conditions: time 28.0 day
# [31] = biological target: T2, Poly [ADP-ribose] polymerase 1; test: Inhibition of PARP-1 in human SK-OV-3 cells assessed as decrease in MCM3 protein expression level at 0.1 to 10 uM by Western blot analysis; assay type: cell-based; conditions: dose 0.1-10 µM
# SK-OV-3 [32] = test: Antitumor activity against human SK-OV-3 cells xenografted in BALB/c nude mouse assessed as increase in gamma-H2AX expression in tumor at 25 to 50 mg/kg, po measured after 28 days by immunohistochemistry analysis; assay type: functional, organism-based; conditions: dose 25-50 mg/kg, time 28.0 day
# A549 [33] = test: Antitumor activity against human A549 cells xenografted in BALB/c nude mouse assessed as induction of CBP mediated tumor growth inhibition at 50 mg/kg, po administered once daily for 12 days in presence of CBP; assay type: functional, organism-based; conditions: time 12.0 day
# [34] = biological target: T2, Poly [ADP-ribose] polymerase 1; test: Inhibition of PARP-1 in human SK-OV-3 cells assessed as decrease in MCM5 protein expression level at 0.1 to 10 uM by Western blot analysis; assay type: cell-based; conditions: dose 0.1-10 µM
# [35] = biological target: T2, Poly [ADP-ribose] polymerase 1; test: Inhibition of PARP-1 in human SK-OV-3 cells assessed as decrease in H2O2-induced PAR level at 0.1 to 10 uM preincubated for 4 hrs followed by H2O2 addition by Western blot analysis; assay type: cell-based; conditions: dose 0.1-10 µM
# SK-OV-3 [36] = test: Antitumor activity against human SK-OV-3 cells xenografted in BALB/c nude mouse assessed as decrease in PAR level at 25 to 50 mg/kg, po measured after 28 days by Western blot analysis; assay type: functional, organism-based; conditions: dose 25-50 mg/kg, time 28.0 day
# [37] = biological target: T2, Poly [ADP-ribose] polymerase 1; test: Inhibition of PARP-1 in human SK-OV-3 cells assessed as induction of DNA damage by measuring increase in gamma H2AX expression by immunofluorescence assay; assay type: cell-based
# A549 [38] = test: Antitumor activity against human A549 cells xenografted in BALB/c nude mouse assessed as tumor growth inhibition at 50 mg/kg, po administered once daily for 12 days; assay type: functional, organism-based; conditions: time 12.0 day
smiles,measurement,setting,value
O=c1cc(-c2ccc(O)cc2)oc2c(CN3CCN(Cc4ccco4)CC3)c(O)cc(O)c12,Activity,A549 [1],inactive
same,Activity,SK-OV-3 [2],Active
same,IC50,[3],1300 nM
same,Activity,[4],Toxic
same,Activity,A549 [5],Dose-Dependent Effect
same,IC50,[6],17.9 nM
same,Ratio IC50,Homo sapiens,72.6
O=c1cc(-c2ccc(O)cc2)oc2c(CN3CCN(Cc4cccs4)CC3)c(O)cc(O)c12 [listing 1 of 2 here],Kd,[7],55 nM
same,Activity,[8],Non-Toxic
same,inhibition at 10 µM,CYP1A2,85.2%
same,inhibition at 10 µM,CYP2C9,94.7%
same,Activity,[9],64.1 U/L
same,Activity,[10],27.6 U/L
same,IC50,[3],900 nM
same,remaining at 4 h,[11],46.2%
same,inhibition at 10 µM,CYP3A4,93.4%
same,inhibition at 10 µM,CYP2C19,70.4%
same,Activity,[12],9 mmol/L
same,Activity,[13],Non-Toxic
same,IC50,[6],14.7 nM
same,remaining at 0.5 h,[14],83.4%
same,inhibition at 10 µM,CYP2D6,92.7%
same,Kd,[15],605 nM
O=c1cc(-c2ccc(O)cc2)oc2c(CN3CCN(Cc4cccs4)CC3)c(O)cc(O)c12 [listing 2 of 2 here],inhibition,[16],Active
same,Activity,A549 [1],inactive
same,Activity,SK-OV-3 [17],Active
same,Activity,[18],Dose-Dependent Effect
same,Activity,[19],Active
same,inhibition,[20],Active
same,inhibition,[21],Active
same,inhibition,[22],Active
same,Activity,SK-OV-3 [23],inactive
same,Activity,SK-OV-3 [2],Active
same,Activity,A549 [24],inactive
same,Activity,SK-OV-3 [25],Active
same,inhibition,[26],Active
same,Activity,[27],Active
same,Activity,[28],Dose-Dependent Effect
same,inhibition,[29],Active
same,Activity,SK-OV-3 [30],Active
same,inhibition,[31],Active
same,Activity,A549 [5],Dose-Dependent Effect
same,Activity,SK-OV-3 [32],Active
same,Activity,A549 [33],Active
same,inhibition,[34],Active
same,inhibition,[35],Active
same,Activity,SK-OV-3 [36],Active
same,Ratio IC50,Homo sapiens,61.2
same,inhibition,[37],Active
same,Activity,A549 [38],inactive
